Measurements: US20180231554A1, “PROGRAMMED CELL DEATH (PD-1) INHIBITOR THERAPY FOR PATIENTS WITH PD-1-EXPRESSING CANCERS” (The Brigham and Women's Hospital, Inc., priority 2015, published 2018)

System: melanoma patients
Assay: Survival and IHC biomarker expression in melanoma patients undergoing anti-PD-1 therapy
Format: in vivo, human
Details: for progression-free survival: greater than 25% vs less than 25% 4E-BP1 expression in pre-treatment biopsies; for progression-free survival / overall survival: Kaplan-Meier; for patients still alive 35 months after initiation of treatment: melanoma patients with >25% p-SHP2 expression in pre-treatment biopsies; for overall survival: n=34, >25% vs less than 25% melanoma-p-S6 expression in pre-treatment biopsies
Experimental: As used herein, the term “progression-free survival” refers to the time from the first administration of anti-PD-1-based therapy to the first documented radiographic evidence of progressive disease. The term “overall survival” is defined as the time from the first administration of anti-PD-1 therapy to the date of death, regardless of cause.
Tumor cell lines, culture methods and clinical specimens: Human G3361 and C8161 and murine B16-F10 melanoma cell lines were cultured in RPMI-1640 medium (Life Technologies) supplemented with 10% (v/v) fetal bovine serum (Life Technologies) and 1% (v/v) penicillin streptomycin (Life Technologies) and human MKL-1, MKL-2, MS-1, and WaGa Merkel cell carcinoma cell lines in RPMI-1640 medium supplemented with 20% (v/v) fetal bovine serum and 1% (v/v) penicillin streptomycin. Clinical melanoma specimens were obtained from patients in accordance with the Institutional Review Boards of Partners Health Care Research Management, Boston, Mass. and the University of Zurich, Switzerland. Informed consent was obtained from all subjects.
Immunohistochemical (IHC) staining methods: Tumor biopsy sections were deparaffininzed in xylene and subsequently rehydrated with 100%, 95%, and 75% ethanol and deionized H2O. Sections were placed in target retrieval solution (Dako) and boiled in a Pascal pressure chamber (Dako) at 125° C. for 30 seconds, 90° C. for 10 seconds, and then cooled down to room temperature. IHC was performed using the two-step peroxidase or alkaline phosphatase method. For peroxidase-based detection of p-S6 and p-AKT, sections were incubated with 1 ug/ml rabbit anti-p-56 ribosomal protein or rabbit anti-p-AKT (Ser473) antibody (Cell Signaling Technology) at 4° C. overnight and then incubated with a 1:200 dilution of goat anti-rabbit IgG peroxidase conjugated antibody (Vector Laboratories) at room temperature for 1 hour. Immunoreactivity was detected using the NovaRed peroxidase substrate (Vector laboratories), according to the manufacturer's protocol. For alkaline phosphatase-based detection of t-SHP2, p-SHP2, p-S6, p-AKT, p-PI3K, p-PDK1, 4E-BP1, or p-eIF-4G, sections were incubated with a 1:200 dilution of t-SHP2, p-SHP2 (Santa Cruz Biotechnology), p-S6, p-AKT, p-PI3K, p-PDK1, 4E-BP1, or p-eIF-4G antibody (Cell Signaling Technology) for 1 hour at room temperature, followed by incubation with a 1:100 dilution of biotin-conjugated secondary antibody (R&D Systems) for 30 minutes at room temperature and a subsequent incubation with a 1:100 dilution of streptavidin-alkaline phosphatase (Roche) for 30 minutes at room temperature. Immunoreactivity was detected using the FAST Red Chromogen System (Biolegend), per the manufacturer's instructions. Nuclear counterstaining (blue) was performed with Meyer's haemalum for both methods.
Imaging and quantification of IHC tumor sections: All images of IHC-stained sections were analyzed with a Nikon microscope (DXM 1200F) and captured using the NIS-Elements software (BR 2.30 Nikon). Expression of p-S6 and 4E-BP1 antigens was graded by n=2-3 independent investigators blinded to the study outcome on a scale of 0-4 (0: no p-S6 expression by melanoma cells; 1: p-S6 expression in 1%-25%; 2: 26%-50%; 3:51%-75%; 4: >75% of melanoma cells). For each slide, at least two areas with the highest numbers of 5-100(+) and MART-1(+) melanoma cells, as determined in serial sections, were selected for analysis.

Substance | progression-free survival | patients still alive 35 months after initiation of treatment [%] | overall survival
Nivolumab | significantly increased | 100 | significantly enhanced
Pembrolizumab | significantly increased | 100 | significantly enhanced
